Experimental data from ChEMBL document CHEMBL3727360, “Tetrahydroisoquinolines as selective nadph oxidase 2 inhibitors” (2014).
Active and inactive are the calls of the source. The rule behind the calls is not given here.

Legend:
[1] = target: Xanthine dehydrogenase/oxidase (Bos taurus, UniProt P80457); assay: Inhibition of bovine xanthine-oxidase assessed as H2O2 production at 25 to 50 uM by amplex red dye based fluorescence assay; conditions: cattle
[2] = Cytotoxicity against african green monkey COS7 cells at high concentration for 15 mins by fluorescence analysis; type: cell-based; conditions: chlorocebus aethiops, cos-7, 0.25 h
[3] = target: T1, NADPH oxidase 2 (Homo sapiens) (UniProt P04839); assay: Inhibition of human Nox2 expressed in COS7 cells co-transfected with human p22-phox,p47phox and p67-phox assessed as inhibition of LiDS-induced superoxide generation at 6.3 uM preincubated for 15 mins followed by addition of LiDS and NADPH; type: cell-based; conditions: COS-7
T1 sequence (whole entry): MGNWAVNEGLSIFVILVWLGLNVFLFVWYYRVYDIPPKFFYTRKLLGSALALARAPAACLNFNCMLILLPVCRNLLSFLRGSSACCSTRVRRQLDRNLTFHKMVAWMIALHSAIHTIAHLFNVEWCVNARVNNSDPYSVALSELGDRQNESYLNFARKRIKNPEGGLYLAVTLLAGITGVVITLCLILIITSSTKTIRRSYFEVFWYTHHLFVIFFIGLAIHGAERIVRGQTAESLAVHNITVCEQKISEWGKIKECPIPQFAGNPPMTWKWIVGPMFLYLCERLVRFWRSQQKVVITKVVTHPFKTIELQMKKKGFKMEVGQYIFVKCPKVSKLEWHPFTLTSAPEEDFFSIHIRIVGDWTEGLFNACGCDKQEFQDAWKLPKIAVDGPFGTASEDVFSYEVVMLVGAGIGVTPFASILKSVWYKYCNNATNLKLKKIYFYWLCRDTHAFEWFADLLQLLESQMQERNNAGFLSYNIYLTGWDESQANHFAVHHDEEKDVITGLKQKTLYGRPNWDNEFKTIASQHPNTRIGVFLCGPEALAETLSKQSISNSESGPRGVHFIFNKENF

NADPH oxidase 2 [4] = target: T2, NADPH oxidase 2 (Homo sapiens, UniProt P04839); assay: Inhibition of human Nox2 expressed in COS7 cells co-transfected with human p22-phox,p47phox and p67-phox assessed as inhibition of PMA-induced superoxide generation by L-012 chemiluminescence analysis; type: cell-based; conditions: cos-7
T2 sequence (P04839 whole entry): T1 sequence (whole entry)

NADPH oxidase 2 [5] = target: T2, NADPH oxidase 2; assay: Inhibition of human Nox2 expressed in COS7 cells co-transfected with human p22-phox,p47phox and p67-phox assessed as inhibition of PMA-induced H2O2 production by amplex red dye based fluorescence assay; type: cell-based; conditions: cos-7
NADPH oxidase 4 = target: T3, NADPH oxidase 4 (Homo sapiens, UniProt Q9NPH5); assay: Inhibition of human Nox4 expressed in COS7 cells assessed as inhibition of PMA-induced H2O2 production by amplex red dye based fluorescence assay; type: cell-based; conditions: cos-7
T3 sequence (Q9NPH5 whole entry): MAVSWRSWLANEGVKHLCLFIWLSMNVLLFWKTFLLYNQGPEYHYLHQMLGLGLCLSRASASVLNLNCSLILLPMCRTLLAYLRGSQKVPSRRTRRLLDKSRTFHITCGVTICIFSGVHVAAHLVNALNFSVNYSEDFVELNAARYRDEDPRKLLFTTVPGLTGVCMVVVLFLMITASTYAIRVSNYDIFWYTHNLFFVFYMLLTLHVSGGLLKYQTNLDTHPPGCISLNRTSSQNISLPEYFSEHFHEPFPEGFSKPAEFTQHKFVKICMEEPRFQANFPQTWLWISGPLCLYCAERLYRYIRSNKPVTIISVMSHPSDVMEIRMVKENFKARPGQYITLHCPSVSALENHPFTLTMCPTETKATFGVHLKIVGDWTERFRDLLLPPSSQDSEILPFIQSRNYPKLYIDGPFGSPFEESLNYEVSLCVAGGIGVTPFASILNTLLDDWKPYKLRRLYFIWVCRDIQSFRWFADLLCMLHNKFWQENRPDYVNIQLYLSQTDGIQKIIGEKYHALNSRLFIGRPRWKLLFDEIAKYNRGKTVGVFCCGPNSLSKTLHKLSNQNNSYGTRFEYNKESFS

HPAEC [6] = assay: Inhibition of high-glucose-stimulated superoxide production in HPAEC cells at 25 uM measured after 24 hrs; type: functional, cell-based; conditions: Homo sapiens
[7] = target: T1, NADPH oxidase 2 (Homo sapiens); assay: Inhibition of human Nox2 expressed in COS7 cells co-transfected with human p22-phox,p47phox and p67-phox assessed as inhibition of PMA-induced ROS production at 10 uM; type: cell-based; conditions: COS-7
Cardiac muscle cell [8] = assay: Inhibition of high-glucose-stimulated ROS production in rat cardiomyocyte at 25 uM; type: functional
HPAEC [9] = assay: Inhibition of angiotensin-2-stimulated superoxide production in HPAEC cells at 25 uM measured after 24 hrs; type: functional, cell-based; conditions: Homo sapiens
[10] = target: T4, NADPH oxidase 1 (Homo sapiens) (UniProt Q9Y5S8); assay: Inhibition of human Nox1 expressed in COS7 cells co-transfected with human co-transfected with human NOXO1/NOXA1 assessed as inhibition of PMA-induced ROS production at 10 uM; type: cell-based; conditions: COS-7
T4 sequence (whole entry): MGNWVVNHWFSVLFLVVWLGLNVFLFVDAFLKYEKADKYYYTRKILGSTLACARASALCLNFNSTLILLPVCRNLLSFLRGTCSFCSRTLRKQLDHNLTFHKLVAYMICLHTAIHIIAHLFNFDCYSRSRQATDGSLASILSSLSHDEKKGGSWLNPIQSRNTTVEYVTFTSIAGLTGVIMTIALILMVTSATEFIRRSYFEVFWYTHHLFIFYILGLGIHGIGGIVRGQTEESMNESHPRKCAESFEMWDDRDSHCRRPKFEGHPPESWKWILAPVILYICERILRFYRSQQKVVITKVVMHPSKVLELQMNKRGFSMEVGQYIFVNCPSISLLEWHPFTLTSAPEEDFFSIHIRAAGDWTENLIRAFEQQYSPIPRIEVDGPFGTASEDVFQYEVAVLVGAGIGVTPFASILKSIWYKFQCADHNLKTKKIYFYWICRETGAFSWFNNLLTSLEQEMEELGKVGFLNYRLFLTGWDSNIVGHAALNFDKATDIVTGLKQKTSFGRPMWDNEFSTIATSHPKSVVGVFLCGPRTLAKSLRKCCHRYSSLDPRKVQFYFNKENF

Cardiac muscle cell [11] = assay: Inhibition of high-glucose-stimulated hypertrophy in rat cardiomyocyte at 25 uM; type: functional
Fibroblast = assay: Inhibition of PMA-induced ROS production in human fibroblast at 10 uM; type: functional, cell-based
NADPH oxidase 1 = target: T5, NADPH oxidase 1 (Homo sapiens, UniProt Q9Y5S8); assay: Inhibition of human Nox1 expressed in COS7 cells co-transfected with human NOXO1/NOXA1 assessed as inhibition of PMA-induced superoxide generation by L-012 chemiluminescence analysis; type: cell-based; conditions: cos-7
T5 sequence (Q9Y5S8 whole entry): T4 sequence (whole entry)

Xanthine dehydrogenase/oxidase, sequence (P80457 whole entry): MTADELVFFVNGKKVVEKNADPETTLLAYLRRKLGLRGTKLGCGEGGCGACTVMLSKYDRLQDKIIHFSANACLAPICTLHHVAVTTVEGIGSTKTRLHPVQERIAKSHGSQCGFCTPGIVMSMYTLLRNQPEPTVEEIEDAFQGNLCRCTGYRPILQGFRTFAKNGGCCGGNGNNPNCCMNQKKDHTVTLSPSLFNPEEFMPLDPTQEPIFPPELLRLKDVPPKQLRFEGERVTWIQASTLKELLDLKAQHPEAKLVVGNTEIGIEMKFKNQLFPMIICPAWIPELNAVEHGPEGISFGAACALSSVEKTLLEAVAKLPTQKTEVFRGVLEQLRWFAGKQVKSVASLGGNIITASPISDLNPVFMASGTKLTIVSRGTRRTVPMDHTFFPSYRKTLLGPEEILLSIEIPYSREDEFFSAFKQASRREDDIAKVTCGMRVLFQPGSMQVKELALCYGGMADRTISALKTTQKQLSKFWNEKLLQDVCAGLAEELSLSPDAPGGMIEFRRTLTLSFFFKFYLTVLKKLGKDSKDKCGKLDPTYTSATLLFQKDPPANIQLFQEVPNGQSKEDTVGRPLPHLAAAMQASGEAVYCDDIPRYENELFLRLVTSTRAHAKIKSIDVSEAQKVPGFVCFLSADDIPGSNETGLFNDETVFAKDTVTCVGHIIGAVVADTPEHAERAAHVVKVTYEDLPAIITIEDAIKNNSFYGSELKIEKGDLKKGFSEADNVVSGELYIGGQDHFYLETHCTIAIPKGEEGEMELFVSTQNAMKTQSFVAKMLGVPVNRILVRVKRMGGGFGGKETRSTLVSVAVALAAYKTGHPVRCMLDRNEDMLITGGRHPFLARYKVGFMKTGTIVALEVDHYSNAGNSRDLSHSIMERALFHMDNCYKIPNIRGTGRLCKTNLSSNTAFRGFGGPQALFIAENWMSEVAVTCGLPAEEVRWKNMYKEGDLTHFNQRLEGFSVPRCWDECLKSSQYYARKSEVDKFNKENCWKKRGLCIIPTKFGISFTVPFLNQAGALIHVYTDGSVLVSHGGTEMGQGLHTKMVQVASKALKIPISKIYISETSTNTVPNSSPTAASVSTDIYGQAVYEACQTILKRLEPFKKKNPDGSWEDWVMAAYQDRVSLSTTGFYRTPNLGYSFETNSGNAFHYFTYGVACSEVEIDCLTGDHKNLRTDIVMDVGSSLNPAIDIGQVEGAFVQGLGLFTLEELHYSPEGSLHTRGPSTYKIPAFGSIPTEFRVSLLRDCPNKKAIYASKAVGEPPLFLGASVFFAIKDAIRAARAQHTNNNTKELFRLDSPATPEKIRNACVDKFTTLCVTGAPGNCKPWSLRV

Row | SMILES | inhibition (INH) [1] | IC50 (NADPH oxidase 4) | also measured
1 | C=C(C)CC1C2c3c(-c4ccc(Cl)c(Cl)c4)cccc3C(CC2(C)C)N1CCCCC (racemic) | Not Active | – | –
2 | C=C(C)CC1NC2CC(C)(C)C1c1c(Br)cccc12 (racemic) | Not Active | – | Activity [2]: Toxic; inhibition [3]: Active
3 | C=C(C)CC1C2c3c(Br)cccc3C(CC2(C)C)N1Cc1cccc(F)c1 (racemic) | Not Active | – | –
4 | C=C(C)CC1C2c3ccccc3C(CC2(C)C)N1Cc1cccc(F)c1 (racemic) | Not Active | – | –
5 | C=C(C)C[C@@H]1N[C@H]2CC(C)(C)[C@@H]1c1c(-c3cccnc3)cccc12 (racemic) | – | – | IC50 (NADPH oxidase 2 [4]): Not Active; IC50 (NADPH oxidase 2 [5]): Not Active
6 | C=C(C)CC1C2c3c(Br)cccc3C(CC2(C)C)N1Cc1ccnc2ccccc12 (racemic) | Not Active | Not Active | –
7 | C=C(C)CC1C2c3c(Br)cccc3C(CC2(C)C)N1S(=O)(=O)c1ccc(F)cc1 (racemic) | Not Active | Not Active | –
8 | C=C(C)CC1NC2CC(C)(C)C1c1ccccc12 (racemic) | Not Active | Not Active | –
9 | C=C(C)CC1NC2CC(C)(C)C1c1c(-c3ccc(Cl)c(Cl)c3)cccc12 (racemic) | Not Active | – | –
10 | C=C(C)CC1C2c3c(Br)cccc3C(CC2(C)C)N1CCCCC (racemic) | Not Active | – | inhibition (HPAEC [6]): Active; inhibition [7]: Active; inhibition (Cardiac muscle cell [8]): Active; inhibition (HPAEC [9]): inactive; inhibition [10]: Active; inhibition (Cardiac muscle cell [11]): Active; inhibition (Fibroblast): Active
11 | C=C(C)C[C@@H]1N[C@H]2CC(C)(C)[C@@H]1c1c(Br)ccc(Br)c12 | Not Active | Not Active | Activity [2]: Toxic
12 | C=C(C)CC1C2c3c(Br)cccc3C(CC2(C)C)N1S(C)(=O)=O (racemic) | Not Active | – | IC50 (NADPH oxidase 1): Not Active
13 | C=C(C)CC1C2c3c(-c4ccc(Cl)c(Cl)c4)cccc3C(CC2(C)C)N1Cc1ccc2c(c1)OCO2 (racemic) | Not Active | Not Active | –
14 | C=C(C)CC1C2c3c(Br)cccc3C(CC2(C)C)N1Cc1c[nH]c2ccccc12 (racemic) | Not Active | Not Active | –
15 | CC(C)CC1NC2CC(C)(C)C1c1c(Br)cccc12 (racemic) | Not Active | – | Activity [2]: Toxic
16 | C=C(C)CC1C2c3c(Br)cccc3C(CC2(C)C)N1Cc1ccc2c(c1)OCO2 (racemic) | Not Active | – | –
17 | C=C(C)CC1C2c3c(Br)cccc3C(CC2(C)C)N1Cc1cc(C)on1 (racemic) | Not Active | – | –
